Tests used:
[1] = system: Rho/MKL1 mediated transcription; settings: read-out: IC50 for blocking gene transcription; cited from earlier work
[2] = In vivo studies using CCG-1423
[3] = system: PC-3 cells, melanoma and other cancer cell lines; test: Cancer cell proliferation and survival (BrdUrd, WST-1, caspase-3; FIG. 2); type: cell-based
Description: A, PC-3 cells were treated for 27 h with 100 μmol/L LPA in the presence or absence of various concentrations of CCG-1423, labeled with BrdUrd, and stained, and absorbance was read 450 nm. B, various cell lines were treated with […] LPA with or without […] CCG-1423, and then on day 8, WST-1 absorbance was read at 450 nm Black columns indicate four melanoma lines with differing expression of RhoC (A375M2 and SK-MeI-147 have high expression, whereas the parental line A375 (used to derive A375M2) and SK-Mel-28 have lower expression); gray columns indicate several other cancer cell lines; white column indicates the nontransformed fibroblast line WI-38. C, A375 and A375M2 cells were treated with 3 μmol/L CCG-1423 or 3 μmol/L daunorubicin for 25 h, and then caspase-3 activity was measured with a fluorescent substrate (Z0DEVD0R110) using excitation at 485 nm and emission detection at 520 nm. In A and C, data are expressed as a percentage of the no FBS control. In B, data are expressed as percentage of the LPA+DMSO control. All data represent n=3.

Rho/MKL1 pathway = test: SRE.L-firefly luciferase reporter (dual luciferase assay), Gα12QL-transfected PC-3 cells; type: cell-based, human; settings: 19 hrs
Description: (§1) Dual Luciferase Assay: Seed PC-3 prostate cancer cells (40,000 cells/well) were grown in 96-well plates in 10% FBS containing DMEM medium. Cells were transiently transfected with the Gα12QL activator of the Rho/MKL1 pathway, along with the SRE.L-firefly luciferase reporter construct for 6 hours. Additionally, cells were co-transfected with the TK-Renilla luciferase reporter as an indicator of non-specific compound effects. Various concentrations of selected compounds were added to the 96-well plates. Plates were incubated for 19 hours at 37° C. and 5% CO2 in 0.5% FBS containing DMEM medium. Cells were lysed with 1X Passive Lysis Buffer (Promega). Plates were incubated for 30 minutes at room temperature. Luminescence counts were read with a Victor2 (Perkin-Elmer) plate reader.

[4] = system: PC-3 prostate cancer cells; test: WST1 cell viability assay; type: cell-based, human; settings: 10 μM, PC-3 cells, just before lysis
Description: WST1 Cell Viability Assay: One hour prior to cell lysis for the dual luciferase assay, 10 μl per well of WST1 reagent (Roche) was added to the 96-well plates. Plates were incubated for 1 hour at 37° C. and 5% CO2. Cell viability was measured by WST1 absorbance at 450 nm with a Victor2 (Perkin-Elmer) plate reader.

[5] = system: PC-3 prostate cancer cells; test: Matrigel invasion, spontaneous (FIG. 3); type: cell-based, human; settings: 3 μmol/L, spontaneous invasion through Matrigel
Description: A, LPA stimulates invasion of SKOV-3 but not PC-3 cells. Invasion of Matrigel®-coated filters by serum-starved PC-3 prostate cancer or SKOV-3 ovarian cancer cells were measured with or without 30 μmol/L LPA as chemoattractant. B, CCG-1423 inhibits PC-3 cell invasion, whereas PTX inhibits SKOV-3 cell invasion. The effects of CCG-1423 (3 μmol/L) and PTX (100 ng/mL) on spontaneous (PC-3) or LPA-stimulated (SKOV-3) invasion through Matrigel® were measured. In B, data are expressed as a percentage of control. All data represent n=3.

[6] = system: Rho-expressing prostate cancer and melanoma cell lines; settings: read-out: IC50 for inhibiting DNA synthesis, cell growth and survival, and Matrigel invasion; cited from earlier work
[7] = system: TK-Renilla luciferase reporter; test: TK-Renilla (pRL-TK) luciferase reporter, indicator of non-specific compound effects; type: cell-based, human; settings: 10 μM, PC-3 cells, 19 hrs
Description: as §1

CC(ONC(=O)c1cc(C(F)(F)F)cc(C(F)(F)F)c1)C(=O)Nc1ccc(Cl)cc1 (stereo not drawn) [CCG-1423]
IC50 [1]: 1000 nM | in vivo toxicity [2]: limited by non-specific toxicity | cancer cell proliferation and survival [3]: inhibits | % inh SRE.L (10 μM) (Rho/MKL1 pathway; 10 μM, DMSO alone = 0%): 74, ND % | IC50 (Rho/MKL1 pathway): 1500 nM | % inh WST-1 (10 μM) [4]: 44, ND % | PC-3 cell invasion [5]: inhibits | IC50 [6]: 1000 nM | % inh PRL-TK (10 μM) [7]: 48, ND %

— patent US20120252792A1, “METHODS AND COMPOSITIONS FOR MODULATING RHO-MEDIATED GENE TRANSCRIPTION” (THE REGENTS OF THE UNIVERSITY OF MICHIGAN, priority 2009, published 2012)
